Reference: patent US20030008807A1, “Novel signaling pathway for the production of inflammatory pain and neuropathy” (The Regents of the University of California, priority 2001, published 2003)
Entries after “also recorded” stand apart in the source; their conditions may differ.

Tests used:
[1] = test system: mechanical nociceptive threshold; experiment: Prostaglandin E2-induced hyperalgesia in male and female rats (Example 2); assay type: in vivo, rat; details: both sexes, gonad-intact; inhibitor 1 μg, PGE2 100 ng intradermal
Excerpt: The nociceptive flexion reflex was quantified using the Randall-Selitto paw pressure device (Analgesymeter, Stoetling, Chicago, Ill., USA), which applies a linearly increasing mechanical force to the dorsum of the rat's hind paw. The mechanical nociceptive threshold was defined as the force in grams at which the rat withdrew its paw. The protocols for this procedure have been previously described (Taiwo et al., (1989) The contribution of training to sensitivity in the nociceptive paw-withdrawal test. Brain Res., 487:148-151). Rats were familiarized in the testing procedure, at 5-min intervals for a period of 1 h per day for 3 days in the week preceding the experiment, to decrease variance in nociceptive thresholds (Taiwo et al., (1989), supra). Baseline paw-withdrawal threshold was defined as the mean of six readings before test agents were injected. Each paw was treated as an independent measure (Taiwo et al., (1989), supra) and each experiment was performed on a separate group of rats. Each group of rats was treated with only one agonist and/or antagonist injected peripherally by the intradermal route. It has been shown in previous studies that these agents, which are injected using the protocol described, exert a peripheral rather than central action (Khasar et al., (1995), supra; and, Khasar et al., (1999b), supra). The dose-response relationship for the effect of epinephrine was determined over a dose range of 1 ng-1 μg. All behavioural testing was done between 10.00 and 16.00 h. The blocking agents, with and without epinephrine (Khasar et al., (1999b), supra) or prostaglandin E2 (PGE2) (Aley et al., (1998), supra; Aley & Levine, (1999), supra; and, Aley et al., (2000) Chronic hypersensitivity for inflammatory nociceptor sensitization mediated by the epsilon isozyme of protein kinase C. J. Neurosci., 20:4680-4685), were injected as described previously (Khasar et al., (1995), supra; and, Khasar et al., (1999b), supra). […]

[2] = test system: mechanical nociceptive threshold; experiment: Epinephrine-induced hyperalgesia in gonad-intact and gonadectomized male and female rats (Example 2); details: inhibitor 1 μg, epinephrine 100 ng intradermal
Method: The nociceptive flexion reflex was quantified using the Randall-Selitto paw pressure device (Analgesymeter, Stoetling, Chicago, Ill., USA), which applies a linearly increasing mechanical force to the dorsum of the rat's hind paw. The mechanical nociceptive threshold was defined as the force in grams at which the rat withdrew its paw. […] Baseline paw-withdrawal threshold was defined as the mean of six readings before test agents were injected. […] Each group of rats was treated with only one agonist and/or antagonist injected peripherally by the intradermal route. […] All behavioural testing was done between 10.00 and 16.00 h. […] The protein kinase inhibitor was separated from the distilled water by drawing up a small air bubble (<1 μL) into the syringe after drawing up the protein kinase inhibitor but before drawing up the distilled water.
A stock solution of PGE2 (4 mg/mL) was made by dissolving it in 10% ethanol in normal saline; further dilution to 100 ng was made by addition of saline. Final concentration of ethanol was <10%. […] Stock solutions (1 μg/μL) of inhibitors were stored at −20° C. […] Inhibitors were injected at a concentration of 1 μg/2.5 μL.

[3] = test system: mechanical nociceptive threshold; experiment: Active MEK-induced hyperalgesia, Randall-Selitto paw-withdrawal test; details: intradermal, inhibitor 1 μg plus active MEK 0.5 U, male rats
Excerpt: (§4) The nociceptive flexion reflex (Randall-Selitto paw-withdrawal test) was quantified with a Basile Analge-symeter (Stoelting, Chicago, Ill.), which applies a linearly increasing mechanical force to the dorsum of the rat's hindpaw. The mechanical nociceptive threshold was defined as the force in grams at which the rat withdrew its paw. […] They were allowed to crawl into individual cylindrical Perspex blocks and were lightly restrained there by closing both ends of the cylinder. […] The rats were allowed to acclimatize to the restrainer for 5-10 min, after which the hindpaws were exposed to the test stimulus. Three readings were taken at 5 min intervals, and their mean was considered the baseline threshold. After each drug administration, mechanical paw-withdrawal thresholds were determined again as the mean of three readings taken 20, 25, and 30 min after injection.
Inhibitors were diluted with distilled water before intra-dermal injections into the paw using a 10 μl microsyringe (Hamilton, Reno, Nev.). Injections of peptides (1 μg/2.5 μl) were always preceded by injection of distilled water (2.5 μl) to produce hypo-osmotic shock. […] Paw-withdrawal thresholds were measured again 10, 15, and 20 min after injecting the test agent. […] The effect of each dose a test agent was calculated as the percentage change from baseline.

[4] = test system: ERK1/2; experiment: Epinephrine-stimulated ERK1/2 phosphorylation in cultured rat DRG neurons (Western analysis); assay type: cell-based
Method: Trypsin was inactivated by adding 100 μg/ml soybean trypsin inhibitor and 2.5 mg/ml MgSO4. The cells were centrifuged at 300×g for 5 min and resuspended culture media containing minimal essential medium (MEM) supplemented with 10% heat-inactivated fetal calf serum, 1×MEM vitamins, and 1000 U/ml each of penicillin and streptomycin. The culture was enriched for neurons by preplating on 100 mm culture dishes pretreated with 0.1 mg/ml poly-DL-ornithine in 15 mM sodium borate buffer. After culture for 15-20 hr, the loosely attached neuronal cells were collected and plated for 3 hr on six-well plates coated with 0.1 mg/ml poly-DL-ornithine and 1 mg/ml laminin.
After drug treatment, cells from neuron-enriched DRG cultures were collected and centrifuged at 300×g for 5 min at 4° C. […] Blots were incubated with anti-phospho-p42/44 MAP kinase antibody (diluted 1:500 in blocking buffer) overnight at 4° C. Blots were rinsed three times in PBS-T and incubated in blocking buffer containing HRP-conjugated goat anti-rabbit IgG (diluted 1:1000; Boehringer Mannheim, Indianapolis, Ind.) for 1 hr at 27° C. Immunoreactive bands were visualized by enhanced chemiluminescence (Amersham Pharmacia Biotech, Piscataway, N.J.). The membranes were then stripped of antibodies by incubation in 200 mM NaOH for 20 min at 27° C. […] After three washes in PBS-T, blots were incubated with HRP-conjugated goat anti-rabbit IgG (diluted 1:1000; Boehringer Mannheim) for 1 hr at 27° C., and immunoreactive bands were visualized by enhanced chemiluminescence and autoradiography. […] Data were normalized by dividing values obtained for phospho-ERK1 and phospho-ERK2 immunoreactivity by the value obtained for total ERK1 immunoreactivity for each sample.

[5] = test system: mechanical nociceptive threshold; experiment: ψεRACK (PKCε activator)-induced hyperalgesia, Randall-Selitto paw-withdrawal test; assay type: in vivo, rat; details: intradermal, inhibitor 1 μg plus ψεRACK 1 μg, male rats
Method: (§1) The nociceptive flexion reflex (Randall-Selitto paw-withdrawal test) was quantified with a Basile Analge-symeter (Stoelting, Chicago, Ill.), which applies a linearly increasing mechanical force to the dorsum of the rat's hindpaw. The mechanical nociceptive threshold was defined as the force in grams at which the rat withdrew its paw. On the day of the test, animals were brought to the laboratory and allowed to remain in the cage for 10-15 min. They were allowed to crawl into individual cylindrical Perspex blocks and were lightly restrained there by closing both ends of the cylinder. […] Three readings were taken at 5 min intervals, and their mean was considered the baseline threshold. After each drug administration, mechanical paw-withdrawal thresholds were determined again as the mean of three readings taken 20, 25, and 30 min after injection. The result was expressed as the percentage decrease in nociceptive threshold [(paw-withdrawal threshold after the drug-basal paw withdrawal threshold)/basal withdrawal threshold×100].
(§2) Stock solutions (1 μg/μl) of BIM (in 10% dimethylsulfoxide) and εV1-2 and WI PTI DE (in 0.9% saline) were stored at […]. […] Paw-withdrawal thresholds were measured again 10, 15, and 20 min after injecting the test agent. […] The effect of each dose a test agent was calculated as the percentage change from baseline.

[6] = test system: mechanical nociceptive threshold; experiment: Epinephrine-induced mechanical hyperalgesia, Randall-Selitto paw-withdrawal test (Example 1)
Excerpt: as §4
Inhibitors were diluted with distilled water before intra-dermal injections into the paw using a 10 μl microsyringe (Hamilton, Reno, Nev.). Injections of peptides (1 μg/2.5 μl) were always preceded by injection of distilled water (2.5 μl) to produce hypo-osmotic shock. […] Paw-withdrawal thresholds were measured again 10, 15, and 20 min after injecting the test agent. The mean of the paw-withdrawal thresholds obtained at these three times was then taken as the mechanical nociceptive threshold at the dose of the test agent used. The effect of each dose a test agent was calculated as the percentage change from baseline.

[7] = test system: alcohol-induced hyperalgesia; experiment: Alcohol-induced painful peripheral neuropathy, Randall-Selitto paw-withdrawal test; assay type: in vivo, rat
Excerpt: (§3) The role of Ras-MEK-ERK 1/2 cascade in painful peripheral neuropathy has been evaluated in three rodent models of common clinical conditions in which patients experience painful peripheral neuropathy. The three models are as follows: 1) Taxol® (a major cancer chemotherapy agent)-induced painful peripheral neuropathy (Dina, O. A., et al., (2001) Role of protein kinase C-epsilon and protein kinase A in a model of paclitaxel-induced painful peripheral neuropathy in the rat. Neuroscience 108:507-515); 2) vincristine (another cancer chemotherapy agent)-induced painful peripheral neuropathy (Aley, K. O., et al., (1996) Vincristine hyperalgesia in the rat: a possible modelfor painful vincristine neuropathy in humans. Neuroscience 73:259-265; Tanner, K. D., et al., (1998) Nociceptor hyper-responsiveness during vincristine-induced painful peripheral neuropathy in the rat. J. Neuroscience 18:6480-6491; Tanner, K. D., et al., (1998) Microtubule disorientation and axonal swelling in unmyelinated sensory axons during vincristine-induced painful neuropathy in rat. J. Comp. Neurol., 395:481-492; and, Tanner, K. D., et al., (2002) Altered temporal patterning of afferent activity in a rat model of vincristine-induced peripheral neuropathy (Submitted -Neuroscience).); and, 3) alcohol-induced painful peripheral neuropathy (Dina, O. A., et al., (2000) Key role for the epsilon isoform of protein kinase C in painful alcoholic neuropathy in the rat. J. Neurosci. 20:8614-8619). In all three models, inhibition of MEK by a MEK inhibitor, PD98509, produced either a moderate (Taxol and vincristine) or profound (alcohol) reversal of the painful peripheral neuropathy. In the third model, alcohol-induced painful peripheral neuropathy, a second inhibitor of the Ras-MEK-ERK 1/2 cascade, which was MEK inhibitor U0126, was also employed.
The pain threshold in normal rats was approximately 110 grams, using the Randall-Selitto paw-withdrawal threshold test (plotted as percentage change in nociceptive threshold). Following chronic consumption of a diet in which alcohol replaced calories, but not other nutrients, in the normal diet, the threshold fell to approximately 70 grams. […] See FIG. 13A, which illustrates results from female rats and FIG. 13B, which illustrates results from male rats.

[8] = test system: mechanical nociceptive threshold; experiment: PGE2-induced hyperalgesia, Randall-Selitto paw-withdrawal test (Example 1); assay type: in vivo, rat; details: intradermal, inhibitor 1 μg plus PGE2 100 ng, male rats
Method: as §1, §2

[9] = test system: Taxol-induced hyperalgesia; experiment: Taxol-induced painful peripheral neuropathy, Randall-Selitto paw-withdrawal test; assay type: in vivo, rat; details: male and female rats, administered at site of nociceptive testing on paw
Excerpt: as §3
The pain threshold in normal male and female rats was approximately 110 grams, using the Randall-Selitto paw-withdrawal test (plotted as absolute change in nociceptive threshold). Following administration of Taxol, the threshold fell to approximately 70 grams.

[10] = test system: vincristine-induced hyperalgesia; experiment: Vincristine-induced painful peripheral neuropathy, Randall-Selitto paw-withdrawal test; assay type: in vivo, rat; details: male and female rats, administered at site of nociceptive testing on paw
Excerpt: as §3
The pain threshold in normal male and female rats was approximately 110 grams, using the Randall-Selitto paw-withdrawal test (plotted as absolute change in nociceptive threshold). Following administration of vincristine, the threshold fell to approximately 65 grams.

[11] = male and female rats, administered at site of nociceptive testing on paw

Compound | effect on prostaglandin E2-induced hyperalgesia [1] | effect on epinephrine-induced hyperalgesia ([2]; gonadectomized female rats) | effect on epinephrine-induced hyperalgesia ([2]; intact female rats) | effect on epinephrine-induced hyperalgesia ([2]; intact male rats) | effect on hyperalgesia induced by active MEK [3] | effect on epinephrine-induced ERK phosphorylation [4] | effect on hyperalgesia induced by ψεRACK [5] | effect on epinephrine-induced mechanical hyperalgesia ([6]; rat, in vivo) | effect on alcohol-induced hyperalgesia ([7]; female rats (FIG. 13A)) | effect on alcohol-induced hyperalgesia [7, 11] | effect on alcohol-induced hyperalgesia ([7]; male rats (FIG. 13B)) | effect on hyperalgesia induced by PGE2 [8] | effect on epinephrine-induced mechanical hyperalgesia ([6]; intradermal, inhibitor 1 μg plus epinephrine 100 ng, male rats) | effect on alcohol-induced hyperalgesia ([7]; male and female rats, administered at site of nociceptive testing on paw, listed as PD98509) | effect on Taxol-induced hyperalgesia [9] | effect on Taxol-induced hyperalgesia ([9]; listed as PD98509) | effect on vincristine-induced hyperalgesia [10] | effect on vincristine-induced hyperalgesia ([10]; listed as PD98509) | effect on vincristine-induced hyperalgesia ([10]; listed as PD980598)
WIPTIDE | significantly blocked; also recorded: inhibited to a similar degree | inhibition | neither inhibited | antagonized | did not reduce | – | – | – | – | – | – | – | – | – | – | – | – | – | –
N#CC(=C(/N)Sc1ccccc1N)/C(C#N)=C(\N)Sc1ccccc1N [U0126] | – | – | attenuated | – | – | inhibited | had no effect | inhibited | almost completely reversed | almost complete reversal | almost completely reversed | had no effect | – | – | – | – | – | – | –
COc1cccc(-c2cc(=O)c3ccccc3o2)c1N [PD98059] | – | – | attenuated | – | – | – | had no effect | – | almost completely reversed | almost complete reversal | almost completely reversed | had no effect | inhibited | profound | two-thirds reduction; also recorded: significantly reversed | moderate | more than two-thirds reduction; also recorded: reversed | moderate | significantly reversed
